Drawing on PMC6153204 (2018), this text covers Kd for 1 molecule.

Broadly, the Kd is the constant that tells how readily two partners part at equilibrium. High values mean weaker binding, low ones tighter binding.

Assay [1] deals with A09 (DNA, aptamer) GACATATTCAGTCTGACAGCGGAAGCGGGTCAGTCCAACTCACGGTCTCGCATGCACGGGAGATGGACGAATATCGTCTAGC
Put plainly: plate saturation binding, absorbance at 450 nm, nonlinear regression. As to conditions: varied aptamer, fixed rongalite; immobilised compound (implied by plate assay); buffer not stated.

Assay [2] has as its system B09 (DNA, aptamer) GCTAGACGATATTCGTCCATCTCCCGTGCATGCGAGACCGTGAGTTGGACTGACCCGCTTCCGCTGTCAGACTGAATATGTC
The description is as above. Conditions: varied aptamer, fixed rongalite; immobilised compound (implied by plate assay); buffer not stated.

As to `O=S(O)CO`, the Kd is reported as 61.12 ± 16.36 nM in assay [1] and 39.81 ± 12.73 nM in assay [2].
